Measurements taken from article PMC8617627, “Novel DYRK1A Inhibitor Rescues Learning and Memory Deficits in a Mouse Model of Down Syndrome” (Pharmaceuticals, 2021).
Values joined by “and” are separate entries in the source; they are usually repeats but may differ in a detail not shown here. Equal entries are not always repeated. Where two headings read alike, the source gives them in different places.

What was measured:
[1] = target: PAK4 (Homo sapiens, UniProt O96013); assay: Kinase profile (33P ATP filter binding); assay type: biochemical; conditions: read-out: Remaining protein kinase activity
[2] = target: DYRK1A (Homo sapiens, UniProt Q13627); assay: Kinase profile (33P ATP filter binding); assay type: biochemical; conditions: read-out: Remaining protein kinase activity
[3] = target: CLK2 (Homo sapiens, UniProt P49760); assay: Kinase profile (33P ATP filter binding); assay type: biochemical; conditions: read-out: Remaining protein kinase activity
[4] = target: FGF-R1 (Homo sapiens, UniProt P11362); assay: Kinase profile (33P ATP filter binding); assay type: biochemical; conditions: read-out: Remaining protein kinase activity
[5] = target: CK2 (Homo sapiens, UniProt P68400); assay: Kinase profile (33P ATP filter binding); assay type: biochemical; conditions: read-out: Remaining protein kinase activity
[6] = target: MKK1 (Homo sapiens, UniProt Q02750); assay: Kinase profile (33P ATP filter binding); assay type: biochemical; conditions: read-out: Remaining protein kinase activity
[7] = target: DYRK3 (Homo sapiens, UniProt O43781); assay: Kinase profile (33P ATP filter binding); assay type: biochemical; conditions: read-out: Remaining protein kinase activity
[8] = target: CAMK1 (Homo sapiens, UniProt Q14012); assay: Kinase profile (33P ATP filter binding); assay type: biochemical; conditions: read-out: Remaining protein kinase activity
[9] = target: CDK2-Cyclin A (Homo sapiens, UniProt P24941); assay: Kinase profile (33P ATP filter binding); assay type: biochemical
[10] = target: DYRK2 (Homo sapiens, UniProt Q92630); assay: Kinase profile (33P ATP filter binding); assay type: biochemical; conditions: read-out: Remaining protein kinase activity
[11] = target: GSK3b (Homo sapiens, UniProt P49841); assay: Kinase profile (33P ATP filter binding); assay type: biochemical; conditions: read-out: Remaining protein kinase activity
[12] = Mouse microsome stability assay; assay type: in vitro ADME; conditions: microsomes
[13] = Mouse PO pharmacokinetics (plasma and brain); assay type: in vivo; conditions: for Tmax: po
Description: For determining plasma and brain pharmacokinetics blood samples (via cardiac puncture into heparinized tubes and centrifuged for plasma at 4 °C) and brains were terminally sampled at 0.25, 0.5, 1, 2, 3, 4, 6, and 8 h timepoints post dosing. Three animals per timepoint were sampled. The three animals designated for the 8 h timepoint were housed in a metabolism cage post-dosing for collection of urine. All samples were stored at −20 °C pending analysis. Bioanalysis was carried out by UHPLC-TOF mass spectrometry using electrospray ionization against matrix matched calibration lines.
The pharmacokinetic parameters were subsequently calculated by noncompartmental methods.
(§1) Samples are prepared by protein precipitation and/or dilution: tissues are homogenized first. Analysis is carried out using a generic internal standard, with matrix-matched calibration standards bracketing the study samples.
(§2) Samples were analyzed by high resolution accurate mass UHPLC-TOF MS. […] The mass spectrometer was operated in full scan mode, with positive ion electrospray data acquired over the m/z mass range 100–1000.

[14] = Rat IV pharmacokinetics; assay type: in vivo; conditions: after IV bolus 1 mg/kg
[15] = Mouse IV pharmacokinetics (plasma and brain); assay type: in vivo; conditions: for half-life: read-out: t½ (converted)
Description: as §1, with “In the mouse model, the PK-parameters were also determined in the brain samples. […] Samples” for “Samples”
as §2

[16] = Steady state tissue levels after administration in animal food; assay type: in vivo, mouse
From the text: The highest dose provided a continuous concentration of 1.25 μmol/g both in the liver and in the brain and was used in fear conditioning experiments.
Six control euploid mice of the same genetic background as the Ts65Dn mice were used to perform this analysis; two mice per dose and three doses tested.
Prior to contextual fear conditioning experiments, all mice were exposed for three-days to either food mixture alone or food mixture with added PST-001. In addition, the mice continued to consume these same food preparations during the two days necessary to perform the behavioral testing. […] Comparisons between group means were done with Two-way factorial ANOVA, and Fisher protected least significant difference (PLSD) post hoc test was performed for all significant ANOVA (using Statistica version 13, Tibco Software, Palo Alto, CA, USA).

Sequence of PAK4 (O96013 whole entry): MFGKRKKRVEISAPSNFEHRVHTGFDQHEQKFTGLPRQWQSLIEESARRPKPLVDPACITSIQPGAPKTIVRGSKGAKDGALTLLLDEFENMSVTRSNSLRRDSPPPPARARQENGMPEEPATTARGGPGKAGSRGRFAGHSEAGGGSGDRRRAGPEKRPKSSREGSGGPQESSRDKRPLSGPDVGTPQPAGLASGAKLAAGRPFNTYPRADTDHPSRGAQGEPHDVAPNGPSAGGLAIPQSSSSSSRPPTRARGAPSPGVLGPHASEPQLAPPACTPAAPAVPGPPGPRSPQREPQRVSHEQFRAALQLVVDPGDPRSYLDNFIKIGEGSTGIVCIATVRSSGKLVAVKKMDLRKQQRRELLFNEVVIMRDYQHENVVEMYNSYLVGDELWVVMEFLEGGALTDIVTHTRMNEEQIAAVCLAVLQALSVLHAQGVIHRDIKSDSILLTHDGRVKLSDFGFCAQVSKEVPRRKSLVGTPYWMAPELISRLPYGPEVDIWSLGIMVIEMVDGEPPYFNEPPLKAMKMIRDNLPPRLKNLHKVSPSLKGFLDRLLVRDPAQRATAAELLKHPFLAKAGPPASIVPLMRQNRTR
Sequence of MKK1 (Q02750 whole entry, species assumed): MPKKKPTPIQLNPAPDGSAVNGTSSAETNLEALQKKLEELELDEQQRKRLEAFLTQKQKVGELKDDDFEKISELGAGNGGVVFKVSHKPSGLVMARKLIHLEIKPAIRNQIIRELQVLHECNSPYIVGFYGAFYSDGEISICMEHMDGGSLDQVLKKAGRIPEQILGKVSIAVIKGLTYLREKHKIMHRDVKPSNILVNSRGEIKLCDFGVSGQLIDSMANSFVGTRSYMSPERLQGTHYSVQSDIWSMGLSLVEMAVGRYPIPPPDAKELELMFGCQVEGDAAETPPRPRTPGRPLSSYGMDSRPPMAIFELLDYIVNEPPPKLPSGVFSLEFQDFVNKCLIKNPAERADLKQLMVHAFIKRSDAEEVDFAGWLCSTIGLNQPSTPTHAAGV
Sequence of CAMK1 (Q14012 whole entry): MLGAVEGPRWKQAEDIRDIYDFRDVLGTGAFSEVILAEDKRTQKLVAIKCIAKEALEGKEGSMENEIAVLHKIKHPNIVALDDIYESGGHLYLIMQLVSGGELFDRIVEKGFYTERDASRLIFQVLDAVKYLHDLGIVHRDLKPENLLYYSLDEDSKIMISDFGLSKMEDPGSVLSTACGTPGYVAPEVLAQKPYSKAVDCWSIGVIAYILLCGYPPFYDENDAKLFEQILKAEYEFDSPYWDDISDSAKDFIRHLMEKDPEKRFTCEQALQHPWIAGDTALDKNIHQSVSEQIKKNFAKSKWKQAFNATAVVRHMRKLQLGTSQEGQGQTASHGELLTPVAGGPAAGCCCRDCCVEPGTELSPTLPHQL
Sequence of CK2 (P68400 whole entry): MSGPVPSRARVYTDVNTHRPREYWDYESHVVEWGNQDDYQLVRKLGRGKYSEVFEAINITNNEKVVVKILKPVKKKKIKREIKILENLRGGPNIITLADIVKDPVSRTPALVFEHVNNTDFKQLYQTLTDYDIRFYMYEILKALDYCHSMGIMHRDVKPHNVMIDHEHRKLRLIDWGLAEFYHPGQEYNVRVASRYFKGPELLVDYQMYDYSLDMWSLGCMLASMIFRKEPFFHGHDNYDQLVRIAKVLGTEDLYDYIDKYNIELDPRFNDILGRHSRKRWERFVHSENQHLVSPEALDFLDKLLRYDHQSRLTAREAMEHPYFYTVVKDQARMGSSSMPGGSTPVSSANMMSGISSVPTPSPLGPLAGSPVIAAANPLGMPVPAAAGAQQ
Sequence of FGF-R1 (P11362 22-822): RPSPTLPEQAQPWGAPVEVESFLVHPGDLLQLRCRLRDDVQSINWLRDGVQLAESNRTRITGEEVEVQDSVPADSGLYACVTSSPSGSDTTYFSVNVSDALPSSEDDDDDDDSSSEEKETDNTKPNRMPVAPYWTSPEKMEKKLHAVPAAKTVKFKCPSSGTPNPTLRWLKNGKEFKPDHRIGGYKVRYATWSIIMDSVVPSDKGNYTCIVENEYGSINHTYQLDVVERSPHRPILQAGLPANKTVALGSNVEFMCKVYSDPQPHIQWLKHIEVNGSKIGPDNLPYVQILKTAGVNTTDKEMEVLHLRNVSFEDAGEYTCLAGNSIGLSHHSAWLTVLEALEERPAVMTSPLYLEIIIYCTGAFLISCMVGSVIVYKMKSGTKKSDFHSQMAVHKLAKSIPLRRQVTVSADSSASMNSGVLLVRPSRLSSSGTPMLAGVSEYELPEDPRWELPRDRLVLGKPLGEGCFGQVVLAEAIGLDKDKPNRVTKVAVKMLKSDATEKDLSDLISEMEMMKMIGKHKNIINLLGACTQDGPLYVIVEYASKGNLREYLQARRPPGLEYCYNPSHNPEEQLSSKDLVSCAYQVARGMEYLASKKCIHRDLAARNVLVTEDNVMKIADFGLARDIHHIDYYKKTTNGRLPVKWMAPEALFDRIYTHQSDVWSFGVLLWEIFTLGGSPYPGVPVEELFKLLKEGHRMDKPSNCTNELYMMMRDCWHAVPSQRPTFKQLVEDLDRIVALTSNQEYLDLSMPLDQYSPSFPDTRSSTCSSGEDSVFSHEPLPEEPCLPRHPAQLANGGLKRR
Sequence of GSK3b (P49841 whole entry): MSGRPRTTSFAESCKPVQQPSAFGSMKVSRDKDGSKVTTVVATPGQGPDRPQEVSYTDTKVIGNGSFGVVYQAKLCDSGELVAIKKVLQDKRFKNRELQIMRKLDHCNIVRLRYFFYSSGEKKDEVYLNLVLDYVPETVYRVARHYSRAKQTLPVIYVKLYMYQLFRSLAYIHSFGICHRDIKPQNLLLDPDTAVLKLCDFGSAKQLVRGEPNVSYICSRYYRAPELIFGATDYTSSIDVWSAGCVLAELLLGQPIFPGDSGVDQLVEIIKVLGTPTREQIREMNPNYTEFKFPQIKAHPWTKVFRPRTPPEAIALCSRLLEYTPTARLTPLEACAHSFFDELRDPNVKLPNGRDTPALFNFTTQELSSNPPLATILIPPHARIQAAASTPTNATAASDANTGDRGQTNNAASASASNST
Sequence of DYRK3 (O43781 whole entry): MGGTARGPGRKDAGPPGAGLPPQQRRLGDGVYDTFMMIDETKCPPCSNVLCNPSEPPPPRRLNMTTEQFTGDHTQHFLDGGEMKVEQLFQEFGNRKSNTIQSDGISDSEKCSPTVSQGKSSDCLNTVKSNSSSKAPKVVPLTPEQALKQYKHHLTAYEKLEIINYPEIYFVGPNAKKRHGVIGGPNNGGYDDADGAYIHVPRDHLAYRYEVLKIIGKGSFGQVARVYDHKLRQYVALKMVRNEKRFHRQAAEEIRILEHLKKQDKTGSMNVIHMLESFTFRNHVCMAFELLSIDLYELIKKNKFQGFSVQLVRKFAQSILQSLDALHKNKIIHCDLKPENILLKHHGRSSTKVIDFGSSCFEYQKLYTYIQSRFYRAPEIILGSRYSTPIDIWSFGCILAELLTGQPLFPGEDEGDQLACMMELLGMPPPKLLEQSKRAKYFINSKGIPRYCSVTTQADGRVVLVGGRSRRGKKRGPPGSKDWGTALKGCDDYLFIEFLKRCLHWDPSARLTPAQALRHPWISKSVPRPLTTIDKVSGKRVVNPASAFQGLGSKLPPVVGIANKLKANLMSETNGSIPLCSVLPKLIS
Sequence of CLK2 (P49760 whole entry): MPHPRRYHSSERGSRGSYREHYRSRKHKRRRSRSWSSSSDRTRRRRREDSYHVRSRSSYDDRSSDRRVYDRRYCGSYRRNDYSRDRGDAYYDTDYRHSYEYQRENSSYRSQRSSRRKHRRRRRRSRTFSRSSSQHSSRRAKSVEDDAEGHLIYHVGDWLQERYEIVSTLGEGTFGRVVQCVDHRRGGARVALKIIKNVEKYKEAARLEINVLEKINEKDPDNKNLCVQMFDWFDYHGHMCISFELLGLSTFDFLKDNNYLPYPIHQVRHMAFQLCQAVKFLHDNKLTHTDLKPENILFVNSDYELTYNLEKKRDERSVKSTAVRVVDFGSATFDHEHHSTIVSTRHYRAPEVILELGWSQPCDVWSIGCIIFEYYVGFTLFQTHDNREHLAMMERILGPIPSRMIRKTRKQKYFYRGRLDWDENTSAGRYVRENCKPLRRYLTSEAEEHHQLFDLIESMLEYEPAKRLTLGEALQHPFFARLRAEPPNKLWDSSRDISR
Sequence of DYRK2 (Q92630 whole entry): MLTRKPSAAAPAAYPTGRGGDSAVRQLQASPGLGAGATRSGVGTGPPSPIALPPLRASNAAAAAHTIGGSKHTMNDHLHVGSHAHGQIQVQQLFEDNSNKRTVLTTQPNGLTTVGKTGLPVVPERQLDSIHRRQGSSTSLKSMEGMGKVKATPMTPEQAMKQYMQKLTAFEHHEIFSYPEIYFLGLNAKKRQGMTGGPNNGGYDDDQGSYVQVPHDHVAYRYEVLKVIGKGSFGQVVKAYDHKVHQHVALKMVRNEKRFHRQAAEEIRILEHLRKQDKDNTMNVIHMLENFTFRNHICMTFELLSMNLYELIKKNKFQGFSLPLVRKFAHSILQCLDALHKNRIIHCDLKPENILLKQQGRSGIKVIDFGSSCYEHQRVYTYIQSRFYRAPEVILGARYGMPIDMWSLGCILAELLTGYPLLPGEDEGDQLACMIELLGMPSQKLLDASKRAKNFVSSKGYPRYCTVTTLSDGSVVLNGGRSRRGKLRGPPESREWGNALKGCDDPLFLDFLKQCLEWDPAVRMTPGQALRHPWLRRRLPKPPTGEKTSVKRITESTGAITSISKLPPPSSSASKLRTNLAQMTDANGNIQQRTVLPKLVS

Work on `COc1ccc2sc(-c3cncc(N)c3)nc2c1` [compound 1, 5-(5-Methoxybenzo[d]thiazol-2-yl)pyridin-3-amine] yielded a remaining activity at 1 µM ([1]; PAK4, 1 μM) of 109%, a remaining activity at 100 µM ([1]; PAK4, 100 μM) of 54% and a remaining activity at 1 µM ([2]; 1 μM) of 7%. It also gave a remaining activity at 100 µM ([2]; 100 μM) of 0%, a remaining activity at 1 µM ([3]; 1 μM) of 23% and a remaining activity at 100 µM ([3]; 100 μM) of 1%. For the same molecule, the remaining activity at 1 µM ([4]; 1 μM) was 110%, the remaining activity at 100 µM ([4]; 100 μM) was 91% and the remaining activity at 1 µM ([5]; CK2, 1 μM) was 103%. It also gave a remaining activity at 100 µM ([5]; CK2) of 21%, a remaining activity at 1 µM ([6]; MKK1, 1 μM) of 101% and a remaining activity at 100 µM ([6]; MKK1, 100 μM) of 84%. For the same molecule, the remaining activity at 1 µM ([7]; 1 μM) was 14%, the remaining activity at 100 µM ([7]; 100 μM) was 2% and the remaining activity at 1 µM ([8]; CAMK1, 1 μM) was 99%. The remaining activity at 100 µM ([8]; CAMK1, 100 μM) was 52%, the “Remaining protein kinase activity” value ([9]; 1 μM) was 96% and the “Remaining protein kinase activity” value ([9]; 100 μM) was 19%. It also gave a remaining activity at 1 µM ([10]; 1 μM) of 11%, a remaining activity at 100 µM ([10]; 100 μM) of 1% and a remaining activity at 1 µM ([11]; 1 μM) of 107%. For the same molecule, the remaining activity at 100 µM ([11]; 100 μM) was 25%.

For `COc1ccc2sc(-c3cncc(NC(C)=O)c3)nc2c1` [PST-001, N-(5-(5-Methoxybenzo[d]thiazol-2-yl)pyridin-3-yl)acetamide], the half-life ([12]; read-out: half-life (t½)) was 25 min, the microsomal CLint ([12]; read-out: intrinsic clearance, Cint) was 55 µL/min/mg and the Kp ([13]; male, C57BL/6, mouse, brain, 5 mg/kg, at Tmax after PO administration, read-out: brain level as share of the plasma level) was 0.5. The Tmax ([13]; male, C57BL/6, mouse, brain, 5 mg/kg, mouse, PO 5 mg/kg) was 15 min, the Tmax ([13]; male, C57BL/6, mouse, plasma, 5 mg/kg, PO administration) was 15 min and the Tmax ([13]; male, C57BL/6, mouse, plasma, 5 mg/kg, mouse, PO 5 mg/kg) was 60 min. For the same molecule, the Cmax ([13]; male, C57BL/6, mouse, PO 5 mg/kg, brain) was 153 ng/mL, the half-life ([13]; male, C57BL/6, mouse, PO 5 mg/kg, brain, read-out: t½ (converted)) was 16.2 min and the Cmax ([13]; male, C57BL/6, mouse, PO 5 mg/kg, plasma) was 76 ng/mL. The AUCall ([13]; mouse, PO 5 mg/kg, brain) was 189 h ∗ ng/mL, the AUCall ([13]; mouse, PO 5 mg/kg, plasma) was 89 h ∗ ng/mL and the “PST-001 in the urine” value [14] was “No PST-001 could be found”. For the same molecule, the Cmax ([15]; C57Bl, IV 1 mg/kg, brain) was 867 ng/mL, the Tmax ([15]; C57Bl, IV 1 mg/kg, brain) was 4.8 min and the half-life ([15]; C57Bl, IV 1 mg/kg, brain) was 9 min. It also gave a Cmax ([15]; C57Bl, IV 1 mg/kg, plasma) of 362 ng/mL, a Tmax ([15]; C57Bl, IV 1 mg/kg, plasma) of 4.8 min and a Vd ([15]; C57Bl, IV 1 mg/kg, plasma) of 1.39 L/kg. For the same molecule, the clearance ([15]; C57Bl, IV 1 mg/kg, plasma) was 198 mL/min/kg, the half-life ([15]; C57Bl, IV 1 mg/kg, plasma) was 9 min and the AUCall ([15]; IV 1 mg/kg, brain) was 200 h ∗ ng/mL. The AUCall ([15]; IV 1 mg/kg, plasma) was 84 h ∗ ng/mL, the “Time of Cmax” value ([15]; IV bolus, plasma) was 5 min and the “continuous (steady state) concentration in the brain” value ([16]; 100 mg PST-001/kg powdered food) was 1.25 µmol/g. The “steady state brain concentration” value ([16]; twice-a-day administration in the animal food of 10 mg/kg) was 150 ng/mL, the “steady state plasma level” value ([16]; twice-a-day administration in the animal food of 10 mg/kg, 10 mg/kg) was 76 ng/mL and 0.25 μM and the remaining activity at 1 µM [1] was 116%. For the same molecule, the remaining activity at 100 µM [1] was 98%, the remaining activity at 100 µM ([5]; CK2) was 95% and the remaining activity at 1 µM [5] was 102%. It also gave a remaining activity at 1 µM [6] of 117%, a remaining activity at 100 µM [6] of 135% and a remaining activity at 100 µM [8] of 100%. For the same molecule, the “Remaining protein kinase activity” value ([9]; 1 μM) was 110% and the “Remaining protein kinase activity” value ([9]; 100 μM) was 69%.
